Measurements published in US20250302775A1, “METHODS FOR THE TREATMENT OF DEPRESSION” (Autobahn Therapeutics, Inc., priority 2022, published 2025).

Key:
FAAH = biological target: T1, FAAH (Mus musculus, UniProt O08914); assay: tissue distribution in mice after co-dosing ABX-002 with or without PFI or GFI; format: in vivo; conditions: for Distribution: peripheral or global FAAH inhibitor
T1 construct: from tissue; host or cells: living mice (plasma, liver, brain)
T1 sequence (O08914 1-579): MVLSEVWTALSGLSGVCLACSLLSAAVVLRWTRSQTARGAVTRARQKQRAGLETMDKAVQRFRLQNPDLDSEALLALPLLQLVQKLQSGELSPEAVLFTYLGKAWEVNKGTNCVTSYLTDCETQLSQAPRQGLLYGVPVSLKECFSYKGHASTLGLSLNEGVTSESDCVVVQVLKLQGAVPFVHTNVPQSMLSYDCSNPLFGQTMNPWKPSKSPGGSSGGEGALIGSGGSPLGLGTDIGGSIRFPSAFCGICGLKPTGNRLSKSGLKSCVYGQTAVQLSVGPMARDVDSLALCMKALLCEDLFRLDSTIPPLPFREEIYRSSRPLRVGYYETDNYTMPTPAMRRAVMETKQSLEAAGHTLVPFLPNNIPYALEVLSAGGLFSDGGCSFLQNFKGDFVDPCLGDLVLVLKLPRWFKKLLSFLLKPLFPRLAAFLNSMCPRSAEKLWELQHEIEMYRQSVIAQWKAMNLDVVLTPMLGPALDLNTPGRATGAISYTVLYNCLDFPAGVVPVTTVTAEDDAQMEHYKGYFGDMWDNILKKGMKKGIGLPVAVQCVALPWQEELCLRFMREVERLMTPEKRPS
Protocol: The ability of globally-penetrant and peripherally-restricted FAAH inhibitors (GFI & PFI, respectively) to alter distribution of ABX-002 and ABX-002A was assessed.
Table 5 depicts the inhibition of active metabolite (LL-650177 or PF-044578454) in AUC in the plasma, liver, and brain after prodrug (ABX-002) co-dosing. Tissue distribution studies in mice confirm global & peripheral inhibition of FAAH.

[1] = biological target: T2, recombinant human FAAH (rhFAAH) (Homo sapiens, UniProt O00519); assay: FAAH substrate evaluation: formation of acid metabolite; format: biochemical; conditions: 0.5 ng/μL rhFAAH, 1 μM test compound, room temperature, pH 8.0, 0-60 minutes
T2 construct: purchased Cayman Chemical (Ann Arbor, MI, USA)
T2 sequence (O00519 1-579): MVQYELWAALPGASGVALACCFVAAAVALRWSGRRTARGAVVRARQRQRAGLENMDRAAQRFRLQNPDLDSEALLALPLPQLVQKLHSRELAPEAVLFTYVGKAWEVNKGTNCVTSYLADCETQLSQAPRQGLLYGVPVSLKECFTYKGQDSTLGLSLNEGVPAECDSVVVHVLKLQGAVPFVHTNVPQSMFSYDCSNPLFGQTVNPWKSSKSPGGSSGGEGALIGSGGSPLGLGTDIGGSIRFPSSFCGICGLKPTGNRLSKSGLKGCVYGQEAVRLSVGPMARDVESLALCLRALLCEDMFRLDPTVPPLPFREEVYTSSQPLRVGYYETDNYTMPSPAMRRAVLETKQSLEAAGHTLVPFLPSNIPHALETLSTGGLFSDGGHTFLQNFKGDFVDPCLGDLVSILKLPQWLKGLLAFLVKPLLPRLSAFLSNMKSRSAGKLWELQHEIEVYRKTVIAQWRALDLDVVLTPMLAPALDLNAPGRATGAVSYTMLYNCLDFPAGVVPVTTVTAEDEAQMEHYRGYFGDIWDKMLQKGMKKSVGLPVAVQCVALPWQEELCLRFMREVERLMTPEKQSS
Protocol: Purified recombinant human FAAH (rhFAAH) was purchased from Cayman Chemical (Ann Arbor, MI, USA). The total volume for each incubation was 400 μL containing a final 0.5 ng/μL rhFAAH, 1 μM test compound, 1.25% ethanol or 1 μM PF-3845 (FAAH inhibitor), and 0.1% bovine serum albumin in Tris-EDTA buffer at pH 8.0). The positive control was LL-341001. The incubation was conducted at the room temperature. At 0, 5, 15, 30 and 60 minutes, an aliquot of 30 μL reaction mixtures was removed and mixed with 300 μL acetonitrile containing 5 ng/mL terfenadine and 10 ng/mL tolbutamide as internal standards to quench the reaction. The resulting mixture was centrifuged at 4000 rpm, 4° C. for 15 minutes, and 100 μL supernatant was ready for LC-MS/MS analysis to measure the formation of acid metabolite.
Acquity Ultra Performance LC system from Waters was used for sample analysis. The chromatography was performed on a reverse phase Kinetex 2.6 μm C18 column, 2.1×30 mm, 100 Å. The mobile phase A comprised of 0.1% formic acid in water and mobile phase B comprised of 0.1% formic acid in acetonitrile with a 2-min run time at the flow rate of 0.8 mL/min for the acid metabolite from positive control or a 1.5 min run time at the flow rate of 0.9 mL/min for the acid metabolite of test compounds. The mass spectrometer (API-5500 and API Q Trap 4000 Applied Biosystems/MDS SCIEX Instruments, Framingham, MA, USA) was operated under ESI positive or negative ion MRM mode.
The formation of acid metabolite was monitored and quantified using one calibration point of 1 μM. The observed rate constant (ke) for the acid metabolite formation was calculated by plotting the metabolite concentration versus time of incubation with the slope being ke and is shown in Table 1.

[2] = tested on: T3-responsive target genes; assay: expression of T3-responsive target genes in brain, single PO administration; format: in vivo, male C57BL/6 mouse; conditions: LL-341070 about 0.1 to about 300 μg/kg, T3 about 300 μg/kg
[3] = tested on: T3-responsive target genes; assay: expression of T3-responsive target genes in brain, rat cuprizone model; format: in vivo; conditions: 21 day repeat administration; LL-341070 30 or 100 μg/kg, T3 300 μg/kg; Nanostring
[4] = tissue distribution (TD) assay in mouse, brain and plasma; format: in vivo, male C57BL/6 mouse
recombinant human FAAH = biological target: T3, recombinant human FAAH (Homo sapiens, UniProt O00519); assay: FAAH inhibition, apparent IC50 with AMC substrate; format: biochemical; conditions: 30 min preincubation with recombinant human FAAH and AMC; read-out: Apparent IC50s
T3 sequence (O00519 1-579): T2 sequence (O00519 1-579)

[5] = after prodrug (ABX-002) co-dosing, mice

SMILES | ke (observed rate constant for the acid metabolite formation) [1] | other results
CNC(=O)COc1cc(Cl)c(Cc2ccc(O)c(C(C)C)c2)c(Cl)c1 [Compound 1] | A (A = ke is more than or equal to 0.1) | prodrug levels in plasma, liver and brain with FAAH inhibition (FAAH; co-dosing with PFI or GFI, mice): did not change or slightly increased
CNC(=O)COc1cc(Cl)c(Cc2ccc(O)c(C(C)C)c2F)c(Cl)c1 [Compound 31] | A (A = ke is more than or equal to 0.1) | expression of Hr, Dio3, Klf9 in brain [2]: increases expression of Hr, Dio3, Klf9; expression of T3-responsive genes in brain [3]: expression increase was confirmed; AUC ([4]; male, C57BL/6, mouse, plasma, po, 100 ug/kg): 18.8 ng·h/mL; Brain AUC ([4]; single PO 100 μg/kg, male C57BL/6 mouse, AUC 0-24 hr): 10.9 ng·h/mL
CC#CCNC(=O)COc1cc(Cl)c(Cc2ccc(O)c(C(C)C)c2)c(Cl)c1 [Compound 106] | B (B = ke is less than 0.1 and more than 0) | 
CC#CCN(C)C(=O)COc1cc(Cl)c(Cc2ccc(O)c(C(C)C)c2)c(Cl)c1 [Compound 107] | B (B = ke is less than 0.1 and more than 0) | 
CC(C)c1cc(Cc2c(Cl)cc(OCC(=O)N(C)N(C)C)cc2Cl)ccc1O [Compound 108] | B (B = ke is less than 0.1 and more than 0) | 
CC(C)c1c(O)ccc(Cc2c(Cl)cc(OCC(=O)Nc3cncnc3)cc2Cl)c1F [Compound 109] | A (A = ke is more than or equal to 0.1) | 
CC(C)c1c(O)ccc(Cc2c(Cl)cc(OCC(=O)Nc3ccncn3)cc2Cl)c1F [Compound 110] | A (A = ke is more than or equal to 0.1) | 
CC(C)c1cc(Cc2c(Cl)cc(OCC(=O)N[C@@H]3C[C@@H]3F)cc2Cl)ccc1O [Compound 111] | A (A = ke is more than or equal to 0.1) | 
CC(C)c1cc(Cc2c(Cl)cc(OCC(=O)NCCCF)cc2Cl)ccc1O [Compound 112] | A (A = ke is more than or equal to 0.1) | 
COc1ccc(NC(=O)COc2cc(Cl)c(Cc3ccc(O)c(C(C)C)c3)c(Cl)c2)nn1 [Compound 113] | A (A = ke is more than or equal to 0.1) | 
CC(C)c1cc(Cc2c(Cl)cc(OCC(=O)Nc3cccnc3)cc2Cl)ccc1O [Compound 114] | A (A = ke is more than or equal to 0.1) | 
CC(C)c1cc(Cc2c(Cl)cc(OCC(=O)Nc3ccnnc3)cc2Cl)ccc1O [Compound 116] | A (A = ke is more than or equal to 0.1) | 
CC(C)c1cc(Cc2c(Cl)cc(OCC(=O)N3CCCC3)cc2Cl)ccc1O [Compound 117] | B (B = ke is less than 0.1 and more than 0) | 
CC(C)c1cc(Cc2c(Cl)cc(OCC(=O)N3CCC3)cc2Cl)ccc1O [Compound 118] | B (B = ke is less than 0.1 and more than 0) | 
CC(C)c1cc(Cc2c(Cl)cc(OCC(=O)NC(C)(C)C)cc2Cl)ccc1O [Compound 119] | C (C = ke is 0) | 
CC(C)CN(C)C(=O)COc1cc(Cl)c(Cc2ccc(O)c(C(C)C)c2)c(Cl)c1 [Compound 120] | C (C = ke is 0) | 

SMILES | ke (observed rate constant for the acid metabolite formation) [1] | other results
CC(C)CNC(=O)COc1cc(Cl)c(Cc2ccc(O)c(C(C)C)c2)c(Cl)c1 [Compound 121] | C (C = ke is 0) | 
CC(C)c1cc(Cc2c(Cl)cc(OCC(=O)N(C)C(C)C)cc2Cl)ccc1O [Compound 122] | B (B = ke is less than 0.1 and more than 0) | 
CC(C)c1cc(Cc2c(Cl)cc(OCC(=O)N(C)CCO)cc2Cl)ccc1O [Compound 123] | B (B = ke is less than 0.1 and more than 0) | 
CNN(C)C(=O)COc1cc(Cl)c(Cc2ccc(O)c(C(C)C)c2)c(Cl)c1 [Compound 124] | B (B = ke is less than 0.1 and more than 0) | 
CC(C)c1cc(Cc2c(Cl)cc(OCC(=O)N(C)CCF)cc2Cl)ccc1O [Compound 125] | B (B = ke is less than 0.1 and more than 0) | 
CC(C)NC(=O)COc1cc(Cl)c(Cc2ccc(O)c(C(C)C)c2)c(Cl)c1 [Compound 126] | A (A = ke is more than or equal to 0.1) | 
CC(C)c1cc(Cc2c(Cl)cc(OCC(=O)NC3CCC3)cc2Cl)ccc1O [Compound 127] | B (B = ke is less than 0.1 and more than 0) | 
C=CCN(C)C(=O)COc1cc(Cl)c(Cc2ccc(O)c(C(C)C)c2)c(Cl)c1 [Compound 128] | B (B = ke is less than 0.1 and more than 0) | 
CCCN(C)C(=O)COc1cc(Cl)c(Cc2ccc(O)c(C(C)C)c2)c(Cl)c1 [Compound 129] | B (B = ke is less than 0.1 and more than 0) | 
CCN(C)C(=O)COc1cc(Cl)c(Cc2ccc(O)c(C(C)C)c2)c(Cl)c1 [Compound 130] | B (B = ke is less than 0.1 and more than 0) | 
CC(C)c1cc(Cc2c(Cl)cc(OCC(=O)N(C)CC(F)(F)F)cc2Cl)ccc1O [Compound 131] | B (B = ke is less than 0.1 and more than 0) | 
CC(C)c1cc(Cc2c(Cl)cc(OCC(=O)N(C)CC(F)F)cc2Cl)ccc1O [Compound 132] | B (B = ke is less than 0.1 and more than 0) | 
CC(C)c1cc(Cc2c(Cl)cc(OCC(=O)N3CCOCC3)cc2Cl)ccc1O [Compound 133] | A (A = ke is more than or equal to 0.1) | 
O=C(Nc1cccnn1)N1CCC(=Cc2cccc(Oc3ccc(C(F)(F)F)cn3)c2)CC1 [PF-04457845] |  | IC50 (recombinant human FAAH): 3 nM; inhibition of active metabolite AUC, Brain (FAAH; [5]): 83%; inhibition of active metabolite AUC, Liver (FAAH; [5]): 94%; inhibition of active metabolite AUC, Plasma (FAAH; [5]): 94%; Distribution (FAAH): Global
NC(=O)c1cccc(-c2cc(OC(=O)NC3CCCCC3)ccc2O)c1 [URB937] |  | IC50 (recombinant human FAAH): 69 nM; Distribution (FAAH): Peripheral
